Results from paper PMC6005341, “Identification of “sarsasapogenin-aglyconed” timosaponins as novel Aβ-lowering modulators of amyloid precursor protein processing” (Chemical Science, 2016).

Test system: γ-secretase-mediated cleavage of Notch1
Assay: Notch cleavage by γ-secretase in N2A-APPswe cells transfected with NotchΔE (immunoblot)
Type: cell-based
Details: 18 h
Description: rabbit antibody (Millipore). The immunoreactivities were detected using enhanced chemiluminescence reagents (GE Health care).
For examination of notch cleavage by γ-secretase, N2A-APPswe cells were transfected with myc-tagged NotchΔE construct (pSC2 EMV-6MT, provided by Prof. Raphael Kopan, Washington University, St. Louis, MO) using Fugene HD (Roche). Cells were then treated with timosaponins for 18 h and the expression of NotchΔE and NICD were examined by immunoblot analysis using myc-tagged antibodies.
Aβ ELISA: Aβ concentrations in conditioned medium were assayed using ELISA kits for human Aβ40, human Aβ42 (ultrasensitive) (Invitrogen), human Aβ38 (MyBioSource) (in N2A-APPswe cells) or Wako High Sensitive Aβx-42 ELISA kit (in Rat primary cortical neuron culture). The viability of the N2A-APPswe and Primary cortical neurons were determined by MTT and LDH release assays, respectively. No significant effect of viability of the neuron […]
β-Secretase assays: Confluent N2A-APPswe cells were harvested and homogenized with 50 mM MES, pH5.5. […] The β-secretase activities were assayed by adding 10 µM fluorogenic β-secretase substrate (Millipore) to the reaction mixtures and the fluorescence (excitation, 380; emission, 460) were measured. β-Secretase assays were also performed using purified BACE1 (Millipore) at 100 ng in a buffer containing 50 mM MES, pH 5.5. […]

C[C@H](NC(=O)Cc1cc(F)cc(F)c1)C(=O)N[C@H](C(=O)OC(C)(C)C)c1ccccc1 [DAPT]
production of NICD: completely blocked
